Data published in patent US10835542B2, “9-aminomethyl minocycline compounds and use thereof in treating community-acquired bacterial pneumonia (CABP)” (Paratek Pharmaceuticals, Inc., priority 2016, dated 2020).
“And” between values parts separate entries of the source, which are not always exact repeats. Identical values can stand only once. Like-named read-outs stand apart in the source and are kept apart here.

Experiments:
Mycoplasma pneumoniae = assay: Clinical success at PTE by baseline pathogen, microITT; type: in vivo, human; conditions: N1 = 70 (Compound 1), 57 (Moxifloxacin)
[1] = Safety and tolerability in the food effect study; type: in vivo, human
Description: Safety and tolerability was assessed by: Adverse events (AEs); vital sign measurements at multiple time-points within 24 hours post-dose in each treatment period; and clinical laboratory tests 24 hours post-dose in each treatment period.

Streptococcus pneumoniae [2] = type: in vivo, human; conditions: PTE, microITT
Haemophilus influenzae [3] = assay: Mouse model of lower respiratory tract infection; type: in vivo; conditions: infection caused by Haemophilus influenzae
[4] = tested on: Community-Acquired Bacterial Pneumonia (CABP); assay: Phase 3 CABP study: Early Clinical Response (72-120 h after first dose); type: in vivo, human; conditions: ITT
Streptococcus pneumoniae [5] = assay: Mouse model of lower respiratory tract infection; type: in vivo; conditions: infection caused by Streptococcus pneumoniae
Moraxella catarrhalis = assay: Clinical success at PTE by baseline pathogen, microITT; type: in vivo, human; conditions: N1 = 4 (Compound 1), 1 (Moxifloxacin)
[6] = Food effect on plasma PK of a single 300 mg oral dose, healthy volunteers (4-period crossover); type: in vivo, human
[7] = Absolute bioavailability of the tablet formulation (tosylate salt); conditions: phase 3 tablet formulation (tosylate salt), fasting conditions; listed as omadacycline
Haemophilus influenzae [8] = assay: Clinical success at PTE by baseline pathogen, microITT; type: in vivo, human; conditions: N1 = 32 (Compound 1), 16 (Moxifloxacin)
Klebsiella pneumoniae = assay: as above; type: in vivo, human; conditions: N1 = 13 (Compound 1), 13 (Moxifloxacin)

## CN(C)c1cc(CNCC(C)(C)C)c(O)c2c1C[C@H]1C[C@H]3[C@H](N(C)C)C(O)=C(C(N)=O)C(=O)[C@@]3(O)C(O)=C1C2=O [Compound 1, 9-[(2,2-dimethyl-propylamino)-methyl]-minocycline]
Mycoplasma pneumoniae
  Clinical Success n (%): 66 (94.3) n (%)
[1]; 300 mg oral
  tolerability of a single oral dose: well tolerated
[1]; 32 subjects, nausea, somnolence, mild, unrelated to study drug
  subjects with treatment emergent AEs: two
[1]; all other treatment groups, all measured time points
  median change from baseline in heart rate: ≤ 3 bpm
[1]; single 300 mg oral dose
  serious AE (SAE): no subject experienced a serious AE
  treatment-related adverse events or clinically relevant changes in laboratory values or vital signs: No treatment-related adverse events
Streptococcus pneumoniae [2]; Streptococcus pneumoniae MDRSP, N1 = 7 (Compound 1), 6 (Moxifloxacin)
  Clinical Success n (%): 7 (100.0) n (%)
Streptococcus pneumoniae [2]; Streptococcus pneumoniae Macrolide Resistant, N1 = 10 (Compound 1), 5 (Moxifloxacin)
  Clinical Success n (%): 10 (100.0) n (%)
Streptococcus pneumoniae [2]; Streptococcus pneumoniae PSSP, N1 = 26 (Compound 1), 22 (Moxifloxacin)
  Clinical Success n (%): 23 (88.5) n (%)
Streptococcus pneumoniae [2]; baseline pathogen Streptococcus pneumoniae, N1 = 43 (Compound 1), 34 (Moxifloxacin)
  Clinical Success n (%): 37 (86.0) n (%)
Haemophilus influenzae [3]
  efficacy in mouse model of lower respiratory tract infection: effective
[4]
  Difference (95% CI) in Early Clinical Success rate, Compound 1 minus moxifloxacin: −1.6% and −1.6 (−7.1, 3.8) %
[4]; 72-120 h after first infusion
  Early Clinical Response: Clinical Failure: 49 (12.7) n (%)
  Early Clinical Response: Clinical Failure or Indeterminate: 73 (18.9) n (%)
  Early Clinical Response: Clinical Success: 313 (81.1) n (%)
  Early Clinical Response: Indeterminate: 24 (6.2) n (%)
Streptococcus pneumoniae [5]
  efficacy in mouse model of lower respiratory tract infection: effective
Moraxella catarrhalis
  Clinical Success n (%): 4 (100.0) n (%)
[6]; Treatment D
  between-subject variability in systemic exposure (CV) for Cmax and AUC: 42.6-44.4%
[6]; Treatments A, B and C
  between-subject variability in systemic exposure (CV) for Cmax and AUC: 22.4-29.2%
[7]
  absolute bioavailability: 35%
Haemophilus influenzae [8]
  Clinical Success n (%): 26 (81.3) n (%)
Klebsiella pneumoniae
  Clinical Success n (%): 10 (76.9) n (%)
